Ends that are not written are not given here.

Data on seven molecules can be found in patent US6713444B1 (priority 1999, dated 2004).

The test system of one data set is Bttxs. The note with it: cited from earlier work.
Another data set concerns the target BttxB (Clostridium botulinum, UniProt P10844). The class given is biochemical.
The conditions of data set [1]: rat, in vivo, ip.

BttxB, sequence (P10844 2-441 limits assumed): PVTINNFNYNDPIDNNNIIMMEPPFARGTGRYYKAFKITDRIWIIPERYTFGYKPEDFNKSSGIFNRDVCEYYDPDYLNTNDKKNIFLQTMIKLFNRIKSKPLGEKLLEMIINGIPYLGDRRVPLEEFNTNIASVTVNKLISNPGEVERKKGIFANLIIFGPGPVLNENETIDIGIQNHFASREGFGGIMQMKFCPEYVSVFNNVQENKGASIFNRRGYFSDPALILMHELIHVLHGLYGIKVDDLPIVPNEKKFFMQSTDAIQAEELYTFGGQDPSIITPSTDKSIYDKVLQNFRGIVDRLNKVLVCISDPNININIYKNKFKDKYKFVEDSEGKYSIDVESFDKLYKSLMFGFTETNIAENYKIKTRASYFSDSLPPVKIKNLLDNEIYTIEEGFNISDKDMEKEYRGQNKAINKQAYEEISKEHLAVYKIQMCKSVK

On to `C[C@H](CS)C(=O)N1CCC[C@H]1C(=O)O` [captopril], for which the “inhibition of Bttxs (in words)” value with Bttxs is “not effective inhibitors”.
Turning to Substance P [reference compound], the “substrate of BttxB” value on BttxB was “not a substrate”.
As to “AlaGlyArgGlyLysGlnGlyGlyLysValArgAlaLysAlaLysThrArgSerSerArgAlaGlyLeuGlnPheProValGlyArgValHisArgLeuLeuArglys [Peptide 36]”, on BttxB, the “effectiveness as inhibitor of BttxB activity relative to B-I” value was “about 50%” and the “substrate of BttxB” value was “not substrates”.
For “ThrArgSerSerArgAlaGlyLeuGlnPheProValGlyArgValHisArgLerLeuArgLysGlyAsnTyr [Peptide 24]”, in that order: “about 25%” and “not substrates”.
As to TRSRAKGLQFPGLLVHRKGNY [OSP], the “inhibition of BttxB endoprotease activity (in words)” value against BttxB is on record as “inhibition”.
`CC(C)C[C@H](NP(=O)(O)O[C@@H]1O[C@@H](C)[C@H](O)[C@@H](O)[C@H]1O)C(=O)N[C@@H](Cc1c[nH]c2ccccc12)C(=O)O` [phosphoramidon]: the “inhibition of Bttxs (in words)” value with Bttxs is recorded as “not effective inhibitors”.
For `CC(C)C[C@H](NC(=O)CNC(=O)[C@H](C)NC(=O)[C@H](CCCNC(=N)N)NC(=O)[C@H](CO)NC(=O)[C@H](CO)NC(=O)[C@H](CCCNC(=N)N)NC(=O)[C@@H](NC(=O)[C@H](CCCCN)NC(=O)[C@H](C)NC(=O)[C@H](CCCCN)NC(=O)[C@H](C)NC(=O)[C@H](CCCNC(=N)N)NC(=O)[C@@H](NC(=O)[C@H](CCCCN)NC(=O)CNC(=O)CNC(=O)[C@H](CCC(N)=O)NC(=O)[C@H](CCCCN)NC(=O)CNC(=O)[C@H](CCCNC(=N)N)NC(=O)CNC(=O)[C@H](C)N)C(C)C)[C@@H](C)O)C(=O)N[C@@H](CCC(N)=O)C(=O)N[C@@H](Cc1ccccc1)C(=O)N1CCC[C@H]1C(=O)N[C@H](C(=O)NCC(=O)N[C@@H](CCCNC(=N)N)C(=O)N[C@H](C(=O)N[C@@H](Cc1c[nH]cn1)C(=O)N[C@@H](CCCNC(=N)N)C(=O)N[C@@H](CC(C)C)C(=O)N[C@@H](CC(C)C)C(=O)N[C@@H](CCCNC(=N)N)C(=O)N[C@@H](CCCCN)C(=O)NCC(=O)N[C@@H](CC(N)=O)C(=O)N[C@@H](Cc1ccc(O)cc1)C(=O)O)C(C)C)C(C)C` [Buforin I], in data set [1], the “Plateau (time to reach maximal-plateau level)” value is at most 40 min, the “time the maximal-plateau level was maintained” value is on record as “up to 4 h” and the “time to reach ½ the absorbed maximal value” was determined as 7.7 min. Further, at BttxB, the “inhibition of BttxB endoprotease activity (in words)” value is “dose-dependency and competitively inhibits”; the “substrate of BttxB” value is “not to be a substrate”.
